Patent publication US20060040312A1 (priority 1999, published 2006)
Several values for one entry are separate records, joined by “and”; a condition that tells them apart may be missing. Equal entries are not always repeated. Entries after “also recorded” stand apart in the source; their conditions may differ. Positions of bridges follow the written chain, without caps; N, C: chain ends. Non-standard residues stand in square brackets, D forms with d. Residues, ends and D or L forms follow the SMILES beside them. Hyp = O=C(O)[C@@H]1C[C@@H](O)CN1

Columns and labels:
[1] = rat, in vivo, iv
[2] = test system: primary cultures of cortical neurons; format: cell-based, rat
[3] = test system: primary cortical cultures
Kv1.4 = Kv1.4 (Homo sapiens, UniProt P22459); settings: cited from earlier work
Kv1.4, sequence (P22459 whole entry): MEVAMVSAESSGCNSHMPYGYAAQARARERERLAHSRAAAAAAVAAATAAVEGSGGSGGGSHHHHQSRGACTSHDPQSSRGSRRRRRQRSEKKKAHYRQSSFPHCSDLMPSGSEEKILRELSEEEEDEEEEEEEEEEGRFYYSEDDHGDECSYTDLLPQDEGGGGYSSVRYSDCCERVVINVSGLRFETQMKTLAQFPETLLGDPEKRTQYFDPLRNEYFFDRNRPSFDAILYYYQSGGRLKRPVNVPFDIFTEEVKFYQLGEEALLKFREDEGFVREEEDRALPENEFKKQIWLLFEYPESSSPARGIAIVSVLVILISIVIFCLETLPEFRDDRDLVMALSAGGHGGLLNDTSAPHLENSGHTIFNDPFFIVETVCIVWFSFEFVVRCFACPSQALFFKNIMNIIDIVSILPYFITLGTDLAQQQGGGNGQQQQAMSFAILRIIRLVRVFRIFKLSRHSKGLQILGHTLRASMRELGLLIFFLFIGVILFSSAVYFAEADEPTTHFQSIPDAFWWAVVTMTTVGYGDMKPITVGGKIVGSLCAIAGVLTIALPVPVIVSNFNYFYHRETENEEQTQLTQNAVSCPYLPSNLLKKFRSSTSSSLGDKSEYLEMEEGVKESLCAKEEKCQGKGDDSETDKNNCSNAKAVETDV

cardiac myocytes = format: cell-based, rat
[4] = test system: primary cultures of cortex; format: cell-based, rat
[5] = test system: histamine-contracted, isolated Guinea pig tracheal segments
[6] = test system: primary cultures of cortex; format: cell-based, rat; remark: listed apart in the source
Kv1.3 = biological target: T1, Kv1.3 (Homo sapiens, UniProt P22001); settings: cited from earlier work
T1 construct: host or cells: oocytes
T1 sequence (P22001 whole entry): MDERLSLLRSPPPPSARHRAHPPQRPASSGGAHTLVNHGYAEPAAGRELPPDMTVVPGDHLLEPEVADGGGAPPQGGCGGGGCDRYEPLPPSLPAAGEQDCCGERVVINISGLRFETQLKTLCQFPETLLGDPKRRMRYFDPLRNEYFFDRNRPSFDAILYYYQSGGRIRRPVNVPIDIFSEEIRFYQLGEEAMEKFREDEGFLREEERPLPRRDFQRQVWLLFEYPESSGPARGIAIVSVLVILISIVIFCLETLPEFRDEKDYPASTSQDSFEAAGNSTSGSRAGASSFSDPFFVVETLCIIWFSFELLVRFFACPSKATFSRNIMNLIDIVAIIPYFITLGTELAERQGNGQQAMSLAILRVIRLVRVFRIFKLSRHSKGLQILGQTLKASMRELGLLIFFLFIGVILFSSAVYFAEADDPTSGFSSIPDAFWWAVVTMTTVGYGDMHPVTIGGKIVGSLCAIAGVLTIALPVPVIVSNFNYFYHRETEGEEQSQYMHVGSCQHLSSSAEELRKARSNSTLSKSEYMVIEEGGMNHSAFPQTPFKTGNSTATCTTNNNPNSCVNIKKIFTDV

Kv1.1 = biological target: T2, Kv1.1 (Homo sapiens, UniProt Q09470); settings: cited from earlier work
T2 construct: host or cells: oocytes
T2 sequence (Q09470 whole entry): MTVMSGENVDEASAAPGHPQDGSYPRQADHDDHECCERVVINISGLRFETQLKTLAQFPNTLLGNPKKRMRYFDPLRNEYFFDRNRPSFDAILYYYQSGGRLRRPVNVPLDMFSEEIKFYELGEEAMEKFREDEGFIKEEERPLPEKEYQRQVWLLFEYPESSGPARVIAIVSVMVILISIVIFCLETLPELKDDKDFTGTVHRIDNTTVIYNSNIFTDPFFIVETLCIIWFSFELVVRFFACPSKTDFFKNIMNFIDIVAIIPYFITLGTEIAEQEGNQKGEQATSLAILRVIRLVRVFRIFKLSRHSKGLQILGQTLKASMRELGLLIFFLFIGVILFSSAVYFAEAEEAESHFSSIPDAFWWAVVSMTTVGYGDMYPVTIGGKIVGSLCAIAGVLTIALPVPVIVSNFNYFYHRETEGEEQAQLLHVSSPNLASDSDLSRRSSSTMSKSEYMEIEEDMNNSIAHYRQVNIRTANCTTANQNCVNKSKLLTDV

trachea = format: cell-based, rat
[7] = test system: cardiac ventricular myocytes; format: cell-based, rat
[8] = biological target: Shaker H4 potassium channel (Drosophila melanogaster, UniProt P08510); settings: cited from earlier work
Shaker H4 potassium channel, sequence (P08510 whole entry): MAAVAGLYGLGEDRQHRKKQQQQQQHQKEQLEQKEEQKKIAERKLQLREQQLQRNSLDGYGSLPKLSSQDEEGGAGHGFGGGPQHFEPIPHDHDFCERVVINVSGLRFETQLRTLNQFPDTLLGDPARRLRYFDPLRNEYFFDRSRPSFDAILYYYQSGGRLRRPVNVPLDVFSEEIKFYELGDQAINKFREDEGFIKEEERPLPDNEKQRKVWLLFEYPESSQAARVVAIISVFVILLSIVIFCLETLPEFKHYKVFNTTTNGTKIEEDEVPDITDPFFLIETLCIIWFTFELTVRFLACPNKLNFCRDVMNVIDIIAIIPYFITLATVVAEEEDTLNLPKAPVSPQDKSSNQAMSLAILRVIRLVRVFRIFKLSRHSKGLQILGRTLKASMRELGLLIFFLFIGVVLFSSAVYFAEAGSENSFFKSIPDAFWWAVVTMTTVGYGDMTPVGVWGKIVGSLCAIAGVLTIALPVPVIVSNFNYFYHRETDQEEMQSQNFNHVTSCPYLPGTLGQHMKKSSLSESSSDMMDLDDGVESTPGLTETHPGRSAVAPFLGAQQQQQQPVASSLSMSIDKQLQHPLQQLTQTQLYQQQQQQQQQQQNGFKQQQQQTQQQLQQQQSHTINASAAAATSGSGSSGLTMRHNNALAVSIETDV

F425G Shaker mutation = F425G Shaker mutation (Drosophila melanogaster, UniProt P08510, F425G); settings: cited from earlier work
F425G Shaker mutation, sequence (P08510 whole entry F425G): as the sequence (P08510 whole entry) above, with F425G counted along it

[9] = test system: primary cultures of cortex; format: cell-based, rat; remark: listed apart in the source
cortex = format: cell-based, rat
[10] = test system: primary cultures of ventricular myocytes; format: cell-based, rat
[11] = test system: primary cultures of cortex
[12] = test system: primary cultures of ventricular myocytes
[13] = test system: single tracheal, neuronal or myocyte cells; format: cell-based, rat

For `CC[C@H](C)[C@@H]1NC(=O)[C@H](CCCNC(=N)N)NC(=O)[C@@H](N)CSSC[C@@H]2NC(=O)[C@@H]3CSSC[C@@H](C(=O)N[C@H](C(=O)O)C(C)C)NC(=O)[C@H](CCCCN)NC(=O)[C@H](CC(N)=O)NC(=O)[C@H](Cc4ccccc4)NC(=O)[C@H](CCCNC(=N)N)NC(=O)[C@H](CC(N)=O)NC(=O)[C@H](CSSC[C@H](NC(=O)[C@H](CCCCN)NC(=O)[C@H](CCC(N)=O)NC(=O)[C@H](CC(N)=O)NC(=O)[C@@H]4C[C@@H](O)CN4C1=O)C(=O)N[C@@H](Cc1ccccc1)C(=O)N[C@@H](CCC(N)=O)C(=O)N[C@@H](Cc1c[nH]cn1)C(=O)N[C@@H](CC(C)C)C(=O)N[C@@H](CC(=O)O)C(=O)N[C@@H](CC(=O)O)C(=O)N3)NC(=O)[C@H](CCCCN)NC(=O)[C@H](CCCNC(=N)N)NC(=O)[C@H](CO)NC2=O` [κ-PVIIA, kappa-conotoxin PVIIA] (H-CRI[Hyp]NQKCFQHLDDCCSRKCNRFNKCV-OH; disulfide 1-16, 8-20, 15-26), which “effect on blood pressure” value [1] is on record?
Its value is “no effect”.

What about the “effect on heart rate” value [1] of the same molecule?
Its value is “no effect”.

What about the “change in intracellular calcium (Fluo-3 fluorescence)” value [2] of the same molecule?
The value was −2.15±0.95% and −8.8±3.9%.

What about the “effect on intracellular calcium (Fluo-3)” value [2] of the same molecule?
Its value is “significant reduction”.

What about the “protease activity (cytotoxicity)” value [3] of the same molecule?
The value was “no detectable protease activity”.

What about the “activity on Kv1.4” value (Kv1.4) of the same molecule?
The value was “no detectable activity”.

And the “current corrected for cell capacitance” value (cardiac myocytes)?
Its value is 4.6±0.4 pA/pf.

What about the current evoked (cardiac myocytes) of the same molecule?
The current evoked was 87.7±5.9 pA.

What about the induction of currents (cardiac myocytes) of the same molecule?
Its induction of currents is “induces glibenclamide-sensitive currents”.

And the “change in intracellular K+ concentration (PBFI)” value [4]?
Its value is “reduction”.

What about the “relaxation of histamine-contracted tracheal segments” value [5] of the same molecule?
Its value is “able to relax”.

What about the “initial glutamate-induced depolarization (current-clamp)” value [6] of the same molecule?
The value was “prevents the initial glutamate-induced depolarization”.

And the “effects on Kv1.3” value (Kv1.3)?
Its value is “no effects”.

What about the “activity on Kv1.1” value (Kv1.1) of the same molecule?
Its value is “no detectable activity; also recorded: no effects”.

And the “protection against hypoxia (intracellular calcium, fluo-3)” value (trachea)?
The value was “able to provide protection against hypoxia”.

What about the “degree of glutamate-induced excitotoxicity” value (cortical cells) of the same molecule?
The value was “effectively reduces the degree of glutamate-induced excitotoxicity in a dose-dependant manner”.

What about the “protection against delayed cytotoxic effects of glutamate” value (cortical cells) of the same molecule?
The value was “very effective protection”.

And the “protection against hypoxia-induced depolarization” value [7]?
The value was “prevented any hypoxia-induced changes in membrane potential; also recorded: strong protective effect; also recorded: confers protection”.

What about the “block / inhibition of the Shaker channel” value [8] of the same molecule?
Its value is “block”.

What about the “effect of F425G Shaker mutation on toxin affinity / sensitivity” value (F425G Shaker mutation) of the same molecule?
The value was “abolishes”.

And the “current corrected for cell capacitance” value [9]?
The value was 2.4±0.7 pA/pf.

And the current evoked [9]?
Its current evoked is 26.2±6.2 pA.

And the “reversal potential of the evoked current” value [9]?
The value was roughly −20 mV.

And the “protection against hypoxia (intracellular calcium, fluo-3)” value (cortex)?
The value was “able to provide protection against hypoxia”.

What about the “protection against hypoxia (intracellular calcium, fluo-3)” value [10] of the same molecule?
Its value is “able to provide protection against hypoxia”.

What about the EC50 [11] of the same molecule?
Its EC50 is 0.0008 pM.

And the EC50 [12]?
Its EC50 is 0.0009 pM.

What about the “protection against hypoxia-induced changes in membrane potential (current-clamp)” value [13] of the same molecule?
Its value is “A similar result”.
